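Assay format: 96-well plates, 48-hour exposure. TGI: total growth inhibition.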

The source of these data is PubChem BioAssay (NCI).

One assay has as its system SK-OV-3 ovarian. The assay is described as follows: growth of human tumour cells (NCI), 48 h.
On to `COc1cc(Br)cc2cc(-c3cn4ccsc4n3)c(=O)oc12`, for which the TGI was more than 100 µM.
Take `COc1ccc(N/N=C2\CCOc3ccc(C)cc3C2=O)cc1`: the TGI was 80.2 µM.
On to `COC(=O)C1SC(SC)=NC12c1ccccc1Nc1ccccc12` (stereo not given), for which the TGI was more than 100 µM.
Same read-out and setting: for `CCOC(=O)CSc1c(C(=O)OCC)c(=O)n(-c2ccccc2)c(=S)n1-c1ccccc1` the value was more than 100 µM; for `C=CC1(C)CCC2C(=CCC3C2(C)CC(O)C(O)C3(C)COC2OC(C(=O)O)C(O)C(O)C2O)C1` (stereo not given) (tested in a mixture with another compound), more than 100 µM; for `C=C1C(=O)O[C@@H]2C(=O)[C@@H](C)CCC/C(C)=C/CC[C@@]3(C)O[C@@H]3C[C@@H]12`, more than 100 µM.
The same measure, in the same setting: with `Cc1ccccc1C(=O)N1CCc2c([nH]c3ccccc23)C1` the figure was more than 100 µM; with `Cc1nc2n(c1/C=C1/C(=O)Nc3cccc(Cl)c31)CCS2`, 35.1 µM; with `CCOC(=O)C(SCCO)C(C(=O)OCC)n1cnc2c(=O)[nH]c(NC(C)=O)nc21` (stereo not given), more than 100 µM.
The same measure, in the same setting: with `Cc1ccc([N+](=O)[O-])cc1NC1=NCCO1` the figure was more than 100 µM.
In turn, `N#CCCC1C(C#N)C2(Cl)CC1(Cl)C(Cl)=C2Cl` (stereo not given) returned a TGI of more than 10 µM.
In turn, `CC(C)(C)N1CSC(=S)N(Cc2ccco2)C1` showed a TGI of 18.9 µM.
On to `O=c1c2cc([N+](=O)[O-])cnc2sn1-c1ccc([N+](=O)[O-])cc1`, for which the TGI was more than 100 µM.

The next assay has as its system CCRF-CEM leukemia. The assay is described as follows: growth of human tumour cells (NCI), 48 h.
As to `CCCCCCc1cc2cc(-c3csc(CC#N)n3)c(=O)oc2cc1O`, the TGI is more than 100 µM.
`CN1CCN(C2=NCCO2)CC1` displayed a TGI of more than 100 µM.
Turning to `O=C1CSC(c2ccc(Cl)cc2)N1c1ccc(Oc2ccc(Cl)cc2)c(Cl)c1` (stereo not given), the TGI was 30.6 µM.
Still for that read-out and setting: for `COC(=O)C([C@H](NC1(c2ccccc2)c2ccccc2-c2ccccc21)C(=O)OC)N(NC(=O)OCc1ccccc1)C(=O)OCc1ccccc1` (mixture of isomers) the value was more than 100 µM.
Still for that read-out and setting: with `CC[C@@H]1CC[C@@H]2[C@H](CC[C@]3(C)[C@@H](OC(C)=O)CC[C@@H]23)[C@H]1COC(C)=O` the figure was 41.2 µM; with `Cc1ccc(N=NC(=Nc2ccccc2)c2ccc(N(CCC#N)CCC#N)cc2)cc1`, more than 100 µM; with `C[C@@H]1CC[C@]2(C(=O)O)CC[C@]3(C)C(=CC[C@@H]4[C@@]5(C)CC[C@H](O)C(C)(C)[C@@H]5CC[C@]43C)[C@@H]2[C@]1(C)O`, 23.2 µM.
Still for that read-out and setting: with `CC(C)=CCc1c2c(c3occ(-c4ccc(O)cc4)c(=O)c3c1O)CC(C(C)(C)O)O2` (stereo not given) the figure was more than 100 µM; with `Nc1nc(Cl)cc(NCC2(CO)CC(=O)C2)n1`, more than 100 µM.
Compound `COc1ccc(C2CC(c3c(O)ccc4ccccc34)=NN2C(C)=O)cc1OC` (stereo not given) had a TGI of 36.6 µM.
`O=C(N/N=C(/COc1ccc(Cl)cc1)N=Cc1ccncc1)c1ccncc1` came in with a TGI of more than 100 µM.
On the same count and under the same terms, for `COc1ccc2cc(NC(=O)N/N=C\c3ccc([N+](=O)[O-])cc3)ccc2c1` the value was more than 100 µM; for `NC(N)=N/N=C/c1c(-c2ccc(N)cc2)nc2sccn12`, more than 100 µM; for `COc1cc(Br)cc2cc(-c3cn4ccsc4n3)c(=O)oc12`, more than 100 µM.
Compound `COc1ccc(N/N=C2\CCOc3ccc(C)cc3C2=O)cc1` yielded a TGI of more than 100 µM.
Still for that read-out and setting: with `COC(=O)C1SC(SC)=NC12c1ccccc1Nc1ccccc12` (stereo not given) the figure was more than 100 µM; with `CCOC(=O)CSc1c(C(=O)OCC)c(=O)n(-c2ccccc2)c(=S)n1-c1ccccc1`, more than 100 µM; with `C=CC1(C)CCC2C(=CCC3C2(C)CC(O)C(O)C3(C)COC2OC(C(=O)O)C(O)C(O)C2O)C1` (stereo not given) (tested in a mixture with another compound), more than 100 µM.
With `C=C1C(=O)O[C@@H]2C(=O)[C@@H](C)CCC/C(C)=C/CC[C@@]3(C)O[C@@H]3C[C@@H]12`, the TGI came to 30.2 µM.
Still for that read-out and setting: for `Cc1ccccc1C(=O)N1CCc2c([nH]c3ccccc23)C1` the value was 74 µM; for `Cc1nc2n(c1/C=C1/C(=O)Nc3cccc(Cl)c31)CCS2`, more than 100 µM; for `CCOC(=O)C(SCCO)C(C(=O)OCC)n1cnc2c(=O)[nH]c(NC(C)=O)nc21` (stereo not given), more than 100 µM.
As to `Cc1ccc([N+](=O)[O-])cc1NC1=NCCO1`, the TGI is more than 100 µM.
The compound `N#CCCC1C(C#N)C2(Cl)CC1(Cl)C(Cl)=C2Cl` (stereo not given) had a TGI of more than 10 µM.
Still for that read-out and setting: with `CC(C)(C)N1CSC(=S)N(Cc2ccco2)C1` the figure was 4.03 µM; with `O=c1c2cc([N+](=O)[O-])cnc2sn1-c1ccc([N+](=O)[O-])cc1`, 82.2 µM.

A further assay concerns U251 CNS. The assay is described as follows: growth of human tumour cells (NCI), 48 h.
Take `CCCCCCc1cc2cc(-c3csc(CC#N)n3)c(=O)oc2cc1O`: the TGI is more than 100 µM.
On the same count and under the same terms, with `CN1CCN(C2=NCCO2)CC1` the figure was more than 100 µM; with `O=C1CSC(c2ccc(Cl)cc2)N1c1ccc(Oc2ccc(Cl)cc2)c(Cl)c1` (stereo not given), 36.2 µM; with `COC(=O)C([C@H](NC1(c2ccccc2)c2ccccc2-c2ccccc21)C(=O)OC)N(NC(=O)OCc1ccccc1)C(=O)OCc1ccccc1` (mixture of isomers), more than 100 µM.
The same measure, in the same setting: with `CC[C@@H]1CC[C@@H]2[C@H](CC[C@]3(C)[C@@H](OC(C)=O)CC[C@@H]23)[C@H]1COC(C)=O` the figure was 45 µM; with `Cc1ccc(N=NC(=Nc2ccccc2)c2ccc(N(CCC#N)CCC#N)cc2)cc1`, 71.2 µM.
In turn, `C[C@@H]1CC[C@]2(C(=O)O)CC[C@]3(C)C(=CC[C@@H]4[C@@]5(C)CC[C@H](O)C(C)(C)[C@@H]5CC[C@]43C)[C@@H]2[C@]1(C)O` displayed a TGI of 27.3 µM.
`CC(C)=CCc1c2c(c3occ(-c4ccc(O)cc4)c(=O)c3c1O)CC(C(C)(C)O)O2` (stereo not given) showed a TGI of 25.9 µM.
Still for that read-out and setting: for `Nc1nc(Cl)cc(NCC2(CO)CC(=O)C2)n1` the value was more than 100 µM.
On the same count and under the same terms, for `COc1ccc(C2CC(c3c(O)ccc4ccccc34)=NN2C(C)=O)cc1OC` (stereo not given) the value was more than 100 µM.
The compound `O=C(N/N=C(/COc1ccc(Cl)cc1)N=Cc1ccncc1)c1ccncc1` showed a TGI of more than 100 µM.
Regarding `COc1ccc2cc(NC(=O)N/N=C\c3ccc([N+](=O)[O-])cc3)ccc2c1`, the TGI was more than 100 µM.
`NC(N)=N/N=C/c1c(-c2ccc(N)cc2)nc2sccn12` yielded a TGI of 64.1 µM.
Same read-out and setting: with `COc1cc(Br)cc2cc(-c3cn4ccsc4n3)c(=O)oc12` the figure was more than 100 µM.
Same read-out and setting: for `COc1ccc(N/N=C2\CCOc3ccc(C)cc3C2=O)cc1` the value was 66 µM.
Same read-out and setting: with `COC(=O)C1SC(SC)=NC12c1ccccc1Nc1ccccc12` (stereo not given) the figure was 66.6 µM; with `CCOC(=O)CSc1c(C(=O)OCC)c(=O)n(-c2ccccc2)c(=S)n1-c1ccccc1`, more than 100 µM; with `C=CC1(C)CCC2C(=CCC3C2(C)CC(O)C(O)C3(C)COC2OC(C(=O)O)C(O)C(O)C2O)C1` (stereo not given) (tested in a mixture with another compound), more than 100 µM.
`C=C1C(=O)O[C@@H]2C(=O)[C@@H](C)CCC/C(C)=C/CC[C@@]3(C)O[C@@H]3C[C@@H]12` had a TGI of more than 100 µM.
Still for that read-out and setting: with `Cc1ccccc1C(=O)N1CCc2c([nH]c3ccccc23)C1` the figure was 41.3 µM.
The same measure, in the same setting: for `Cc1nc2n(c1/C=C1/C(=O)Nc3cccc(Cl)c31)CCS2` the value was 34.7 µM.
`CCOC(=O)C(SCCO)C(C(=O)OCC)n1cnc2c(=O)[nH]c(NC(C)=O)nc21` (stereo not given) showed a TGI of more than 100 µM.
On to `Cc1ccc([N+](=O)[O-])cc1NC1=NCCO1`, for which the TGI was more than 100 µM.
`N#CCCC1C(C#N)C2(Cl)CC1(Cl)C(Cl)=C2Cl` (stereo not given) displayed a TGI of more than 10 µM.
On to `CC(C)(C)N1CSC(=S)N(Cc2ccco2)C1`, for which the TGI was determined as 14.4 µM.
Turning to `O=c1c2cc([N+](=O)[O-])cnc2sn1-c1ccc([N+](=O)[O-])cc1`, the TGI was more than 100 µM.
